Data reported in US20250072419A1, “SYSTEMS AND METHODS FOR APPLICATION OF ACTIVE INGREDIENTS TO CANNABIS” (Hazel Technologies, Inc., priority 2020, published 2025).
Values joined by “and” are separate entries in the source; they are usually repeats but may differ in a detail not shown here. Identical values can stand only once.

How the values were obtained:
Format in all cases: in vivo
[1] = tested on: female Cannabis plants, variety 'A' (Shiatsu, 15% sativa and 85% indica); test: development of male sex organs / phenotype on female plants after 1-MCP fumigation, variety A
Procedure: (§1) To examine the effect of 1-MCP exposure, six genetic replicates of a first variety of Cannabis (variety ‘A’) and six genetic replicates of a second variety of Cannabis (variety ‘B’) were grown under greenhouse conditions for a period of four weeks, then transferred to growth chamber conditions with a 12 hour photoperiod for three weeks to induce flower formation. Variety A was from a hybrid strain of 15% sativa and 85% indica bred by BC Bud Depot under the strain name Shiatsu. Variety B was from a hybrid strain of 50% sativa and 50% indica bred by Spectrum under the strain name Jack's Girl. Greenhouse conditions and growth chamber conditions are detailed in Table 1. Next, three of the genetic replicates of each variety were treated with 1-MCP via fumigation in a 295 cubic foot growth chamber for 18 hours using a source of the 1-MCP. The source of the 1-MCP was 250 g of a composition comprising 1-MCP in an amount of 2 wt % loaded in activated carbon as a porous adsorbent material. The treatment was initially activated via the addition of 0.07 gallons of liquid water to the composition, which accelerated release of 1-MCP and established an atmosphere within the growth chamber of 36.3 ppm 1-MCP. Twelve days later, the 18-hour 1-MCP treatment was repeated, and the treatment was repeated again the next day. […]

Cannabis variety A [2] = test: cannabinoid profile of floral tissue by HPLC after 1-MCP treatment, variety A
Procedure: (§2) To examine the effect of 1-MCP exposure, six genetic replicates of a first variety of Cannabis (variety ‘A’) and six genetic replicates of a second variety of Cannabis (variety ‘B’) were grown under greenhouse conditions for a period of four weeks, then transferred to growth chamber conditions with a 12 hour photoperiod for three weeks to induce flower formation. Variety A was from a hybrid strain of 15% sativa and 85% indica bred by BC Bud Depot under the strain name Shiatsu. Variety B was from a hybrid strain of 50% sativa and 50% indica bred by Spectrum under the strain name Jack's Girl. Greenhouse conditions and growth chamber conditions are detailed in Table 1. Next, three of the genetic replicates of each variety were treated with 1-MCP via fumigation in a 295 cubic foot growth chamber for 18 hours using a source of the 1-MCP. The source of the 1-MCP was 250 g of a composition comprising 1-MCP in an amount of 2 wt % loaded in activated carbon as a porous adsorbent material. The treatment was initially activated via the addition of 0.07 gallons of liquid water to the composition, which accelerated release of 1-MCP and established an atmosphere within the growth chamber of 36.3 ppm 1-MCP. Twelve days later, the 18-hour 1-MCP treatment was repeated, and the treatment was repeated again the next day. Control groups of each variety were watered and exposed to identical conditions except that they were never fumigated with 1-MCP.
Cannabinoids concentrations were measured in the genetic replicates from variety A and variety B of Example 1 at three time-points: T1—two days before the first treatment with 1-MCP; T2—one week after the first treatment with 1-MCP; and T3—after all 1-MCP treatments, once the genetic replicates had reached full plant maturity. At each timepoint, three samples of floral tissue were collected from each genetic replicate and frozen overnight. To prepare samples of floral tissue for high performance liquid chromatography (HPLC) analysis, frozen floral tissue was ground, extracted in HPLC-grade methanol, and filtered. HPLC was performed on the filtered methanol, providing a cannabinoid profile for each sample of floral tissue.
Analysis of Variance (ANOVA) was performed to evaluate the effect of 1-MCP on cannabinoid content under each set of experimental conditions.

Cannabis variety A [3] = test: total biomass and flower biomass of dried plants after 1-MCP treatment, variety A
Procedure: as §2
(§3) To examine the effect of 1-MCP exposure, the genetic replicates from variety A and variety B of Example 1 were measured (i) after plants were dried and (ii) after plants were dried and trimmed, reflecting flower biomass. Measurement (i) provided the total biomass of each genetic replicate, while measurement (ii) provided the mass of consumer-ready product. The drying of the plants was performed by placing the plants into a drying chamber (90° F., 16% relative humidity) for 72 hours prior to measurement and/or trimming.

Cannabis variety B [4] = test: total biomass and flower biomass of dried plants after 1-MCP treatment, variety B
Procedure: as §2, §3

Cannabis variety B [5] = test: cannabinoid profile of floral tissue by HPLC after 1-MCP treatment, variety B
Procedure: as §1, with “material.” for “material. The treatment was initially activated via the addition of 0.07 gallons of liquid water to the composition, which accelerated release of 1-MCP and established an atmosphere within the growth chamber of 36.3 ppm 1-MCP. Twelve days later, the 18-hour 1-MCP treatment was repeated, and the treatment was repeated again the next day.”
Cannabinoids concentrations were measured in the genetic replicates from variety A and variety B of Example 1 at three time-points: T1—two days before the first treatment with 1-MCP; T2—one week after the first treatment with 1-MCP; and T3—after all 1-MCP treatments, once the genetic replicates had reached full plant maturity. […]

[6] = tested on: female Cannabis plants, variety 'B' (Jack's Girl, 50% sativa and 50% indica); test: development of male sex organs on female plants after 1-MCP fumigation, variety B; conditions: for Flower clusters displaying male organs 30 days after treatment 3 (%): 36.3 ppm 1-MCP
Procedure: as §2
Stamens were not observed in variety ‘A’ genetic replicates or in either control group.

[7] = Treatment, single specimens, dried and trimmed plants
[8] = Treatment, single specimens, dried plants

SMILES: CC1=CC1 [1-MCP, 1-methylcyclopropene]
- staminate growth ([1]; variety A genetic replicates treated with 1-MCP): Staminate growth was not observed
- plants observed to have purple leaves ([1]; variety A, three 1-MCP-treated plants (FIG. 7), none of three controls): two of three
- deleterious effects on the overall profile of cannabinoids (Cannabis variety A [2]; variety A): no deleterious effects
- THCA, THCVA and CBGA concentrations, treated versus control (ANOVA) (Cannabis variety A [2]; variety A (FIGS. 9A-C)): A few statistically significant differences
- total cannabinoid concentration, treated versus control (ANOVA) (Cannabis variety A [2]; variety A, mature plants (T3) (FIG. 8)): no statistically significant difference
- total cannabinoid concentration, treated versus control (ANOVA) (Cannabis variety A [2]; variety A, timepoint T2, one week after the first treatment (FIG. 8)): statistically significant difference
- deleterious effect on the biomass (Cannabis variety A [3]): did not have a deleterious effect
- increase in flower biomass over the control group (Cannabis variety A [3]): ~10%
- increase in total biomass over the control group (Cannabis variety A [3]): ~22%
- Flower Biomass Group Mean (Cannabis variety A [3]; Treatment, mean of 3 specimens, control mean 87.6): 95.3 g
- Total Biomass Group Mean (Cannabis variety A [3]; Treatment, mean of 3 specimens, control mean 105): 118.3 g
- Flower Biomass (Cannabis variety A [3]; [7]): 98 g and 90 g
- Total Biomass (Cannabis variety A [3]; [8]): 130 g and 120 g and 105 g
- decrease in flower biomass versus control (Cannabis variety B [4]): ~2%
- decrease in total biomass versus control (Cannabis variety B [4]): ~2%
- deleterious effect on the biomass (Cannabis variety B [4]): did not have a deleterious effect
- Flower Biomass Group Mean (Cannabis variety B [4]; Treatment, mean of 3 specimens, control mean 102.3): 100.3 g
- Total Biomass Group Mean (Cannabis variety B [4]; Treatment, mean of 3 specimens, control mean 118.3): 115.6 g
- Flower Biomass (Cannabis variety B [4]; [7]): 95 g and 106 g and 100 g
- Total Biomass (Cannabis variety B [4]; [8]): 111 g and 121 g and 115 g
- deleterious effects on the overall profile of cannabinoids (Cannabis variety B [5]): no deleterious effects
- total cannabinoid concentration, treated versus control (ANOVA) (Cannabis variety B [5]; mature plants (T3) (FIG. 8)): no statistically significant difference
- stamen growth on female floral tissue ([6]; 15 days after final fumigation (FIG. 5)): presence of multiple stamens
- stamen growth on female floral tissue ([6]; 19 days after final fumigation (FIG. 6)): multiple stamens
- Flower clusters displaying male organs 30 days after treatment 3 (%) ([6]; Plant 1, three 18 h fumigations): 97%
- Flower clusters displaying male organs 30 days after treatment 3 (%) ([6]; Plant 2, three 18 h fumigations): 100%
- Flower clusters displaying male organs 30 days after treatment 3 (%) ([6]; Plant 3, three 18 h fumigations): 86%
- stamen growth on female floral tissue ([6]; five days after final fumigation (FIG. 4)): further development of stamen growth
- flower clusters displaying staminate growth ([6]; thirty days after the final 1-MCP treatment): 80-100%
- stamen growth on female floral tissue ([6]; three days after the final fumigation (FIG. 3)): stamens were observed
